Holding throughout (format): in vivo
One assay relates to Aphis gossypii. Description: Test Example 1: foliar spray on cucumber seedling inoculated with Aphis gossypii. Conditions: 144 h, 500 ppm active ingredient, 20 ml sprayed on cucumber seedling, 6 days after spraying. Here is the method: On the other hand, on a cucumber seedling (the first true leaf stage) planted in a plastic cup was inoculated with about 30 Aphis gossypii (whole stage), and leaving it for a day. Twenty (20) ml of each test solution was sprayed on the seedling. Six (6) days after spraying, the number of the surviving Aphis gossypii parasitized on the leaves of the cucumber was examined, and a control value was calculated according to the following equation: Controlling value (%)={1−(Cb×Tai)/(Cai×Tb)}×100 wherein the symbols in the above equation represent as follows: Cb: the number of insects in a non-treated section before treatment Cai: the number of insects in a non-treated section on observation Tb: the number of insects in a treated section before treatment Tai: the number of insects in a […] the non-treated section represents a section where the test diluted solution prepared by diluting the formulation without the present compound as in Formulation Example 5 with the same amount of water as in the treated-section was used.

Assay [1] deals with Nilaparvata lugens. The experiment in a line: Test Example 3: spray on rice seedling, Nilaparvata lugens larvae released. The following applies: 144 h, 10 ml sprayed on rice seedling, third-fourth instar larvae, after 6 days. How it is done: On the other hand, a rice seedling (the second leaf stage) planted in a polyethylene cup was sprayed with 10 ml of each test solution. After air-drying, 20 third-fourth instar larvae of Nilaparvata lugens were released, and kept in the greenhouse of 25° C. After 6 days, the number of insect of living Nilaparvata lugens parasitized on the rice was examined, and a control value was calculated according to the following equation: Controlling value (%)={1−(Cb×Tai)/(Cai×Tb)}×100 wherein the symbols in the above equation represent as follows: Cb: the number of insects in a non-treated section before treatment Cai: the number of insects in a non-treated section on observation Tb: the number of insects in a treated section before treatment Tai: the number of insects in a […] the non-treated section represents a section where the test diluted solution prepared by diluting the formulation without the present compound as in Formulation Example 5 with the same amount of water as in the treated-section was used.

Assay [2] has as its system Nilaparvata lugens. Description: Test Example 4: soil drench of rice seedling, Nilaparvata lugens larvae released. Conditions: 144 h, 5 ml drench at foot of rice seedling, larvae released after 7 days, counted 6 days later. Here is the method: On the other hand, a rice seedling (2 weeks after sowing, the second leaf stage) planted in a plastic cup was drenched at its foot with 5 ml of each test solution, and kept in a greenhouse of 25° C. for 7 days. Twenty (20) third-fourth instar larvae of Nilaparvata lugens were released, and further kept in the greenhouse for 6 days, then the number of insect of living Nilaparvata lugens parasitized on the rice was examined, and a control value was calculated according to the following equation: Controlling value (%)={1−(Cb×Tai)/(Cai×Tb)}×100 wherein the symbols in the above equation represent as follows: Cb: the number of insects in a non-treated section before treatment Cai: the number of insects in a non-treated section on observation Tb: the number of insects in a treated section before treatment Tai: the number of insects in a […] the non-treated section represents a section where the test diluted solution prepared by diluting the formulation without the present compound as in Formulation Example 5 with the same amount of water as in the treated-section was used.

Another assay relates to Plutella xylostella. Description: Test Example 6: spray on cabbage, Plutella xylostella larvae released. The following applies: 120 h, 20 mL/cup sprayed on cabbage, second instar larvae, 25° C., 5 days, read-out: death rate. Here is the method: Each test solution was prepared by diluting a formulation containing any of the present compounds 1-4, 1-5, 1-6, 1-8, 1-9, 1-10, 1-16, 1-18, 1-19, 1-20, 1-29, 1-46, 1-48, 1-49, 1-50, 1-63 and 1-76 as obtained in Formulation Example 5, with water so as to give 500 ppm of the concentration of the active ingredient.
On the other hand, Cabbage (the third leaf stage) planted in a polyethylene cup was sprayed with 20 mL/cup of each test solution. After the test solution was dried, the aerial part was cut off, and then placed in a 50 mL volume cup. Five (5) second instar larvae of Plutella xylostella were released into the cup, and the cup was sealed with a lid. After the cup was kept at 25° C. for 5 days, the number of living insects was counted. A death rate was calculated according to the following equation: Death rate (%)=(Number of dead insects/Number of tested insects)×100

A further assay deals with Musca domestica. Description: Test Example 8: treated filter paper with sucrose bait, Musca domestica. Conditions: 500 ppm, 0.7 ml on filter paper, female imagoes, after 24 hours. Here is the method:
Each test solution was prepared by diluting a formulation containing any of the present compounds 1-4, 1-6, 1-8, 1-9, 1-10, 1-63 and 1-95 as obtained in Formulation Example 5, with water so as to give 500 ppm of the concentration of the active ingredient.
A filter paper having a diameter of 5.5 cm was spread on the bottom of a polyethylene cup having a diameter of 5.5 cm and each test solution (0.7 ml) was added dropwise onto the filter paper. As a bait sucrose (30 mg) was uniformly placed on the filter paper. Into the polyethylene cup, 10 female imagoes of Musca domestica were released and the cup was sealed with a lid. After 24 hours, the number of surviving Musca domestica was examined and the death rate of the pest was calculated according to the following equation: Death rate (%)=(Number of dead insects/Number of tested insects)×100

The test system of another assay is Laodelphax striatella. The experiment in a line: Test Example 12: spray on rice seedling, Laodelphax striatella larvae released. The following applies: 50 ppm, 10 ml sprayed on rice seedling, third instar larvae, after 5 days; method equation is a death rate. Here is the method:
(§1) Any of the present compounds 1-6, 1-8, 1-9 and 1-10 (10 mg) was dissolved in a mixed solution (0.1 ml) of xylene, DMF and Sorpol® 3005X (manufactured by Toho Chemical Industry Co., Ltd.) in a ratio of 4:4:1 to obtain a formulation. Each formulation was diluted with water so as to give 50 ppm of the concentration of the active ingredient.
On the other hand, a rice seedling (2.5 leaf stage) planted in a polyethylene cup was sprayed with 10 ml of each test solution. After air-drying the seedling, 10 third instar larvae of Laodelphax striatella were released, and kept in the greenhouse of 25° C. After 5 days, the number of living insects was counted. A death rate was calculated according to the following equation: Death rate (%)={10−(Number of living insects after 5 days)/10}×100

The next assay has as its system Sogatella furcifera. The experiment in a line: Test Example 13: spray on rice seedling, Sogatella furcifera larvae released. Conditions: 50 ppm, 10 ml sprayed on rice seedling, third instar larvae, after 5 days; method equation is a death rate. How it is done: as §1
On the other hand, a rice seedling (2.5 leaf stage) planted in a polyethylene cup was sprayed with 10 ml of each test solution. After air-drying the seedling, 10 third instar larvae of Sogatella furcifera were released, and kept in the greenhouse of 25° C. After 5 days, the number of living insects was counted. A death rate was calculated according to the following equation: Death rate (%)={10−(Number of living insects after 5 days)/10}×100 As a result, in the treated-section using each test solution containing each of the present compounds 1-6, 1-8, 1-9 and 1-10, the control value was 100%.

Another assay has as its system Blattalla germanica. The experiment in a line: Test Example 9: treated filter paper with sucrose bait, Blattalla germanica. The following applies: 500 ppm, 0.7 ml on filter paper, male imagoes, after 6 hours. How it is done: Each test solution was prepared by diluting a formulation containing any of the present compounds 1-9 and 1-19 as obtained in Formulation Example 5, with water so as to give 500 ppm of the concentration of the active ingredient.
A filter paper having a diameter of 5.5 cm was spread on the bottom of a polyethylene cup having a diameter of 5.5 cm and each test solution (0.7 ml) was added dropwise onto the filter paper. Sucrose (30 mg) as a bait was uniformly placed on the filter paper. Into the polyethylene cup, 2 male imagoes of Blattalla germanica were released and the cup was sealed with a lid. After 6 hours, the number of surviving Blattalla germanica was examined and the death rate of the pest was calculated according to the following equation: Death rate (%)=(Number of dead insects/Number of tested insects)×100

`CCSc1cccnc1-c1nc2cc(SC(F)(F)F)ccc2o1` [present compound 1-6, 2-(3-ethylsulfanylpyridine-2-yl)-5-(trifluoromethylsulfanyl)benzoxazole]: the pest or weed control at 500 ppm was at least 90% with Aphis gossypii, at least 90% in the assay on Nilaparvata lugens [1], at least 90% in the assay on Nilaparvata lugens [2] and at least 80% in the assay on Plutella xylostella. The compound further registered a death rate with Musca domestica of 100%. In addition, the control value in the assay with Laodelphax striatella and in the assay on Sogatella furcifera was 100% throughout.

For the compound `CCS(=O)(=O)c1cccnc1-c1nc2cc(SC(F)(F)F)ccc2o1` [present compound 1-8, 2-(3-ethylsulfonylpyridin-2-yl)-5-(trifluoromethylsulfanyl)benzoxazole], the pest or weed control at 500 ppm was at least 90% in the assay with Aphis gossypii, at least 90% with Nilaparvata lugens [1], at least 90% with Nilaparvata lugens [2] and at least 80% in the assay with Plutella xylostella. In the assay on Musca domestica, this compound displayed a death rate of 100%. The control value with Laodelphax striatella and in the assay on Sogatella furcifera was 100% in each case.

As for `CCS(=O)(=O)c1cccnc1-c1nc2cc([S+]([O-])C(F)(F)F)ccc2o1` (stereo not shown) [present compound 1-9, 2-(3-ethylsulfonylpyridin-2-yl)-5-(trifluoromethylsulfinyl)benzoxazole], the pest or weed control at 500 ppm with Aphis gossypii was at least 90%; with Nilaparvata lugens [1], at least 90%; with Nilaparvata lugens [2], at least 90%; with Plutella xylostella it was at least 80%. Besides, the death rate with Musca domestica and in the assay with Blattalla germanica was 100% in each case. Besides, the control value in the assay on Laodelphax striatella and in the assay on Sogatella furcifera was 100% each time.

`CCS(=O)(=O)c1cccnc1-c1nc2cc(S(=O)(=O)C(F)(F)F)ccc2o1` [present compound 1-10, 2-(3-ethylsulfonylpyridin-2-yl)-5-(trifluoromethylsulfonyl)benzoxazole]: the pest or weed control at 500 ppm with Aphis gossypii was at least 90%; with Nilaparvata lugens [1] it was at least 90%; with Nilaparvata lugens [2] it was at least 90%; with Plutella xylostella, at least 80%. In the assay on Musca domestica, this compound had a death rate of 100%. Also, the control value with Laodelphax striatella and in the assay with Sogatella furcifera was 100% in each case.

`CCS(=O)(=O)c1cc(C(F)(F)F)cnc1-c1nc2cc([S+]([O-])C(F)(F)F)ccc2o1` (stereo not shown) [present compound 1-19, 2-(3-ethylsulfonyl-5-trifluoromethylpyridine-2-yl)-5-(trifluoromethylsulfinyl)benzoxazole]: the pest or weed control at 500 ppm with Aphis gossypii is at least 90%; in the assay on Nilaparvata lugens [1], at least 90%; in the assay with Nilaparvata lugens [2], at least 90%; with Plutella xylostella, at least 80%. In addition, the death rate in the assay with Blattalla germanica worked out at 100%.

The values are drawn from patent publication US9615580B2, “Fused heterocyclic compound and use thereof for pest control” (Sumitomo Chemical Company, Limited, priority 2012, dated 2017).
